Test results published in the OligoGym collection.
“And” between values parts separate entries of the source, which are not always exact repeats. Equal values may be shown once. HELM strings list units from the 5' end as sugar, base in round brackets, then linkage (d deoxyribose, r ribose, m 2'-O-methyl, p phosphodiester). Methylation of C is not given here. [moe] = 2'-O-(2-methoxyethyl) (MOE); [cEt] = constrained ethyl (cEt); [sp] = phosphorothioate linkage

Biological target: HBV
Conditions: ASO

Row | Substance | target mRNA inhibition (HepG2, 0.07 µM) | also measured
1 | RNA1{[moe](A)[sp].[cEt](A)[sp].d(T)[sp].d(T)[sp].d(T)[sp].d(A)[sp].d(T)[sp].d(G)[sp].d(C)[sp].d(C)[sp].d(T)[sp].d(A)[sp].[cEt](C)[sp].[moe](A)[sp].[cEt](G)[sp].[moe](C)}$$$$V2.0 | 60% and 59% | 
2 | RNA1{[moe](A)[sp].[cEt](C)[sp].[cEt](T)[sp].d(A)[sp].d(G)[sp].d(T)[sp].d(A)[sp].d(A)[sp].d(A)[sp].d(C)[sp].d(T)[sp].d(G)[sp].d(A)[sp].[cEt](G)[sp].[cEt](C)[sp].[moe](C)}$$$$V2.0 | 77% and 85% | target mRNA inhibition (HepG2, 0.0092593 µM): 24%; target mRNA inhibition (HepG2, 0.0277778 µM): 55%; target mRNA inhibition (HepG2, 0.0833333 µM): 74%; target mRNA inhibition (HepG2, 0.25 µM): 88%
3 | RNA1{[moe](A)[sp].[cEt](C)[sp].d(G)[sp].d(T)[sp].d(G)[sp].d(C)[sp].d(A)[sp].d(G)[sp].d(A)[sp].d(G)[sp].d(G)[sp].d(T)[sp].[cEt](G)[sp].[moe](A)[sp].[cEt](A)[sp].[moe](G)}$$$$V2.0 | 71% and 68% | 
4 | RNA1{[moe](A)[sp].[cEt](G)[sp].[cEt](G)[sp].d(C)[sp].d(A)[sp].d(C)[sp].d(A)[sp].d(G)[sp].d(C)[sp].d(T)[sp].d(T)[sp].d(G)[sp].d(G)[sp].[cEt](A)[sp].[cEt](G)[sp].[moe](G)}$$$$V2.0 | 12% and 37% | 
5 | RNA1{[moe](A)[sp].[cEt](G)[sp].[cEt](T)[sp].d(C)[sp].d(C)[sp].d(A)[sp].d(C)[sp].d(C)[sp].d(A)[sp].d(C)[sp].d(G)[sp].d(A)[sp].d(G)[sp].[cEt](T)[sp].[cEt](C)[sp].[moe](T)}$$$$V2.0 | 62% and 45% | 
6 | RNA1{[moe](A)[sp].[cEt](G)[sp].d(A)[sp].d(G)[sp].d(G)[sp].d(T)[sp].d(G)[sp].d(A)[sp].d(A)[sp].d(G)[sp].d(C)[sp].d(G)[sp].[cEt](A)[sp].[moe](A)[sp].[cEt](G)[sp].[moe](T)}$$$$V2.0 | 63% and 76% | 
7 | RNA1{[moe](A)[sp].[cEt](G)[sp].d(A)[sp].d(T)[sp].d(G)[sp].d(A)[sp].d(G)[sp].d(G)[sp].d(C)[sp].d(A)[sp].d(T)[sp].d(A)[sp].[cEt](G)[sp].[moe](C)[sp].[cEt](A)[sp].[moe](G)}$$$$V2.0 | 72% and 60% | 
8 | RNA1{[moe](A)[sp].[cEt](G)[sp].d(G)[sp].d(A)[sp].d(G)[sp].d(T)[sp].d(T)[sp].d(C)[sp].d(C)[sp].d(G)[sp].d(C)[sp].d(A)[sp].[cEt](G)[sp].[moe](T)[sp].[cEt](A)[sp].[moe](T)}$$$$V2.0 | 74% and 87% | target mRNA inhibition (HepG2, 0.0092593 µM): 12%; target mRNA inhibition (HepG2, 0.0277778 µM): 40%; target mRNA inhibition (HepG2, 0.0833333 µM): 62%; target mRNA inhibition (HepG2, 0.25 µM): 82%
9 | RNA1{[moe](A)[sp].[cEt](G)[sp].d(G)[sp].d(C)[sp].d(A)[sp].d(G)[sp].d(A)[sp].d(G)[sp].d(G)[sp].d(T)[sp].d(G)[sp].d(A)[sp].[cEt](A)[sp].[moe](A)[sp].[cEt](A)[sp].[moe](A)}$$$$V2.0 | 39% and 37% | 
10 | RNA1{[moe](A)[sp].[cEt](G)[sp].d(T)[sp].d(C)[sp].d(C)[sp].d(A)[sp].d(C)[sp].d(C)[sp].d(A)[sp].d(C)[sp].d(G)[sp].d(A)[sp].[cEt](G)[sp].[moe](T)[sp].[cEt](C)[sp].[moe](T)}$$$$V2.0 | 51% and 43% | 
11 | RNA1{[moe](A)[sp].[cEt](T)[sp].d(T)[sp].d(T)[sp].d(A)[sp].d(T)[sp].d(G)[sp].d(C)[sp].d(C)[sp].d(T)[sp].d(A)[sp].d(C)[sp].[cEt](A)[sp].[moe](G)[sp].[cEt](C)[sp].[moe](C)}$$$$V2.0 | 44% and 52% | 
12 | RNA1{[moe](A)[sp].[moe](A)[sp].[moe](C)[sp].[moe](T)[sp].d(G)[sp].d(G)[sp].d(A)[sp].d(G)[sp].d(C)[sp].d(C)[sp].d(A)[sp].d(C)[sp].d(C)[sp].[moe](A)[sp].[moe](G)[sp].[moe](C)}$$$$V2.0 | 52% and 45% | 
13 | RNA1{[moe](A)[sp].[moe](A)[sp].[moe](C)[sp].d(C)[sp].d(A)[sp].d(C)[sp].d(T)[sp].d(G)[sp].d(A)[sp].d(A)[sp].d(C)[sp].d(A)[sp].d(A)[sp].[cEt](A)[sp].[cEt](T)[sp].[cEt](G)}$$$$V2.0 | 41% and 38% | 
14 | RNA1{[moe](A)[sp].[moe](A)[sp].[moe](C)[sp].d(T)[sp].d(G)[sp].d(G)[sp].d(A)[sp].d(G)[sp].d(C)[sp].d(C)[sp].d(A)[sp].d(C)[sp].d(C)[sp].[cEt](A)[sp].[cEt](G)[sp].[cEt](C)}$$$$V2.0 | 56% and 63% | 
15 | RNA1{[moe](A)[sp].[moe](A)[sp].[moe](G)[sp].[moe](A)[sp].[moe](T)[sp].[moe](G)[sp].d(A)[sp].d(G)[sp].d(G)[sp].d(C)[sp].d(A)[sp].d(T)[sp].d(A)[sp].d(G)[sp].d(C)[sp].[moe](A)[sp].[moe](G)}$$$$V2.0 | 65% and 41% | 
16 | RNA1{[moe](A)[sp].[moe](A)[sp].[moe](G)[sp].[moe](A)[sp].[moe](T)[sp].d(G)[sp].d(A)[sp].d(G)[sp].d(G)[sp].d(C)[sp].d(A)[sp].d(T)[sp].d(A)[sp].d(G)[sp].[moe](C)[sp].[moe](A)[sp].[moe](G)}$$$$V2.0 | 26% and 34% | 

Row | Substance | target mRNA inhibition (HepG2, 0.07 µM) | also measured
17 | RNA1{[moe](A)[sp].[moe](A)[sp].[moe](G)[sp].[moe](C)[sp].[moe](G)[sp].d(A)[sp].d(A)[sp].d(G)[sp].d(T)[sp].d(G)[sp].d(C)[sp].d(A)[sp].d(C)[sp].d(A)[sp].[moe](C)[sp].[moe](G)[sp].[moe](G)}$$$$V2.0 | 77% and 76% | target mRNA inhibition (HepG2, 0.0092593 µM): 8%; target mRNA inhibition (HepG2, 0.0277778 µM): 26%; target mRNA inhibition (HepG2, 0.0833333 µM): 62%; target mRNA inhibition (HepG2, 0.25 µM): 85%
18 | RNA1{[moe](A)[sp].[moe](A)[sp].[moe](G)[sp].d(C)[sp].d(G)[sp].d(A)[sp].d(A)[sp].d(G)[sp].d(T)[sp].d(G)[sp].d(C)[sp].d(A)[sp].[moe](C)[sp].[moe](A)[sp].[moe](C)[sp].[moe](G)[sp].[moe](G)}$$$$V2.0 | 81% and 73% | 
19 | RNA1{[moe](A)[sp].[moe](A)[sp].[moe](G)[sp].d(C)[sp].d(G)[sp].d(A)[sp].d(A)[sp].d(G)[sp].d(T)[sp].d(G)[sp].d(C)[sp].d(A)[sp].d(C)[sp].[cEt](A)[sp].[cEt](C)[sp].[cEt](G)}$$$$V2.0 | 70% and 63% | 
20 | RNA1{[moe](A)[sp].[moe](A)[sp].[moe](T)[sp].[moe](T)[sp].d(T)[sp].d(A)[sp].d(T)[sp].d(G)[sp].d(C)[sp].d(C)[sp].d(T)[sp].d(A)[sp].d(C)[sp].[moe](A)[sp].[moe](G)[sp].[moe](C)}$$$$V2.0 | 38% and 34% | 
21 | RNA1{[moe](A)[sp].[moe](A)[sp].[moe](T)[sp].d(T)[sp].d(T)[sp].d(A)[sp].d(T)[sp].d(G)[sp].d(C)[sp].d(C)[sp].d(T)[sp].d(A)[sp].d(C)[sp].[cEt](A)[sp].[cEt](G)[sp].[cEt](C)}$$$$V2.0 | 47% and 36% | 
22 | RNA1{[moe](A)[sp].[moe](A)[sp].d(C)[sp].d(C)[sp].d(A)[sp].d(C)[sp].d(T)[sp].d(G)[sp].d(A)[sp].d(A)[sp].d(C)[sp].[moe](A)[sp].[moe](A)[sp].[moe](A)[sp].[moe](T)[sp].[moe](G)[sp].[moe](G)}$$$$V2.0 | 67% and 59% | 
23 | RNA1{[moe](A)[sp].[moe](A)[sp].d(C)[sp].d(T)[sp].d(G)[sp].d(G)[sp].d(A)[sp].d(G)[sp].d(C)[sp].d(C)[sp].d(A)[sp].[moe](C)[sp].[moe](C)[sp].[moe](A)[sp].[moe](G)[sp].[moe](C)[sp].[moe](A)}$$$$V2.0 | 68% and 53% | 
24 | RNA1{[moe](A)[sp].[moe](A)[sp].d(T)[sp].d(T)[sp].d(T)[sp].d(A)[sp].d(T)[sp].d(G)[sp].d(C)[sp].d(C)[sp].d(T)[sp].[moe](A)[sp].[moe](C)[sp].[moe](A)[sp].[moe](G)[sp].[moe](C)}$$$$V2.0 | 27% and 19% | 
25 | RNA1{[moe](A)[sp].[moe](C)[sp].[moe](C)[sp].d(A)[sp].d(C)[sp].d(T)[sp].d(G)[sp].d(A)[sp].d(A)[sp].d(C)[sp].d(A)[sp].d(A)[sp].d(A)[sp].[cEt](T)[sp].[cEt](G)[sp].[cEt](G)}$$$$V2.0 | 65% and 71% | 
26 | RNA1{[moe](A)[sp].[moe](C)[sp].[moe](G)[sp].[moe](G)[sp].[moe](G)[sp].d(C)[sp].d(A)[sp].d(A)[sp].d(C)[sp].d(A)[sp].d(T)[sp].d(A)[sp].d(C)[sp].d(C)[sp].[moe](T)[sp].[moe](T)}$$$$V2.0 | 56% and 46% | 
27 | RNA1{[moe](A)[sp].[moe](C)[sp].[moe](G)[sp].d(G)[sp].d(G)[sp].d(C)[sp].d(A)[sp].d(A)[sp].d(C)[sp].d(A)[sp].d(T)[sp].d(A)[sp].[moe](C)[sp].[moe](C)[sp].[moe](T)[sp].[moe](T)[sp].[moe](G)}$$$$V2.0 | 43% and 34% | 
28 | RNA1{[moe](A)[sp].[moe](C)[sp].[moe](G)[sp].d(G)[sp].d(G)[sp].d(C)[sp].d(A)[sp].d(A)[sp].d(C)[sp].d(A)[sp].d(T)[sp].d(A)[sp].[moe](C)[sp].[moe](C)[sp].[moe](T)[sp].[moe](T)}$$$$V2.0 | 48% and 39% | 
29 | RNA1{[moe](A)[sp].[moe](C)[sp].[moe](G)[sp].d(G)[sp].d(G)[sp].d(C)[sp].d(A)[sp].d(A)[sp].d(C)[sp].d(A)[sp].d(T)[sp].d(A)[sp].d(C)[sp].[cEt](C)[sp].[cEt](T)[sp].[cEt](T)}$$$$V2.0 | 43% and 40% | 
30 | RNA1{[moe](A)[sp].[moe](C)[sp].[moe](T)[sp].[moe](A)[sp].[moe](G)[sp].[moe](T)[sp].d(A)[sp].d(A)[sp].d(A)[sp].d(C)[sp].d(T)[sp].d(G)[sp].d(A)[sp].d(G)[sp].d(C)[sp].[moe](C)[sp].[moe](A)}$$$$V2.0 | 84% and 75% | target mRNA inhibition (HepG2, 0.0092593 µM): 2%; target mRNA inhibition (HepG2, 0.0277778 µM): 15%; target mRNA inhibition (HepG2, 0.0833333 µM): 38%; target mRNA inhibition (HepG2, 0.25 µM): 75%
31 | RNA1{[moe](A)[sp].[moe](C)[sp].[moe](T)[sp].[moe](G)[sp].d(G)[sp].d(A)[sp].d(G)[sp].d(C)[sp].d(C)[sp].d(A)[sp].d(C)[sp].d(C)[sp].d(A)[sp].[moe](G)[sp].[moe](C)[sp].[moe](A)[sp].[moe](G)}$$$$V2.0 | 40% and 41% | 
